According to paper PMC11314561, “Design and Synthesis of Novel Aminoindazole-pyrrolo[2,3-b]pyridine Inhibitors of IKKα That Selectively Perturb Cellular Non-Canonical NF-κB Signalling” (Molecules, 2024):

Experiments:
Assay in all cases: kinase panel
Format in all cases: biochemical
IR(h), activated = IR(h), activated (Homo sapiens, UniProt P06213)
Outline: (§1)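 Percentage inhibition was recorded for each compound against a broad kinase panel of 231 enzymes. Because of its close structural resemblance to another analogue, one compound was screened against 98 chosen kinases.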

Txk(h) = Txk(h) (Homo sapiens, UniProt P42681)
Outline: as §1

Lck(h) activated = Lck(h) activated (Homo sapiens, UniProt P06239)
Outline: as §1

MKK6(h) = MKK6(h) (Homo sapiens, UniProt P52564)
Outline: as §1

Rse(h) = Rse(h) (Homo sapiens, UniProt Q06418)
Outline: as §1

PAK4(h) = PAK4(h) (Homo sapiens, UniProt O96013)
Outline: as §1

BrSK1(h) = BrSK1(h) (Homo sapiens, UniProt Q8TDC3)
Outline: as §1

LKB1(h) = LKB1(h) (Homo sapiens, UniProt Q15831)
Outline: as §1

eEF-2K(h) = eEF-2K(h) (Homo sapiens, UniProt O00418)
Outline: as §1

Itk(h) = Itk(h) (Homo sapiens, UniProt Q08881)
Outline: as §1

ULK3(h) = ULK3(h) (Homo sapiens, UniProt Q6PHR2)
Outline: as §1

EphB3(h) = EphB3(h) (Homo sapiens, UniProt P54753)
Outline: as §1

LOK(h) = LOK(h) (Homo sapiens, UniProt O94804)
Outline: as §1

TAO3(h) = TAO3(h) (Homo sapiens, UniProt Q9H2K8)
Outline: as §1

EphA2(h) = EphA2(h) (Homo sapiens, UniProt P29317)
Outline: as §1

mTOR/FKBP12(h) = mTOR/FKBP12(h) (Homo sapiens, UniProt P42345)
Outline: as §1

FGFR2(h) = FGFR2(h) (Homo sapiens, UniProt P21802)
Outline: as §1

EphA7(h) = EphA7(h) (Homo sapiens, UniProt Q15375)
Outline: as §1

DDR2(h) = DDR2(h) (Homo sapiens, UniProt Q16832)
Outline: as §1

ULK2(h) = ULK2(h) (Homo sapiens, UniProt Q8IYT8)
Outline: as §1

Lyn(h) = Lyn(h) (Homo sapiens, UniProt P07948)
Outline: as §1

EphA5(h) = EphA5(h) (Homo sapiens, UniProt P54756)
Outline: as §1

Snk(h) = Snk(h) (Homo sapiens, UniProt Q9NYY3)
Outline: as §1

NEK7(h) = NEK7(h) (Homo sapiens, UniProt Q8TDX7)
Outline: as §1

MST3(h) = MST3(h) (Homo sapiens, UniProt Q9Y6E0)
Outline: as §1

SGK3(h) = SGK3(h) (Homo sapiens, UniProt Q96BR1)
Outline: as §1

CK2α2(h) = CK2α2(h) (Homo sapiens, UniProt P19784)
Outline: as §1

TSSK2(h) = TSSK2(h) (Homo sapiens, UniProt Q96PF2)
Outline: as §1

p70S6K(h) = p70S6K(h) (Homo sapiens, UniProt P23443)
Outline: as §1

Tie2 (h) = Tie2 (h) (Homo sapiens, UniProt Q02763)
Outline: as §1

CK1γ1(h) = CK1γ1(h) (Homo sapiens, UniProt Q9HCP0)
Outline: as §1

CLK3(h) = CLK3(h) (Homo sapiens, UniProt P49761)
Outline: as §1

IGF-1R(h), activated = IGF-1R(h), activated (Homo sapiens, UniProt P08069)
Outline: as §1

SRPK2(h) = SRPK2(h) (Homo sapiens, UniProt P78362)
Outline: as §1

FGFR4(h) = FGFR4(h) (Homo sapiens, UniProt P22455)
Outline: as §1

SIK(h) = SIK(h) (Homo sapiens, UniProt P57059)
Outline: as §1

CK1γ3(h) = CK1γ3(h) (Homo sapiens, UniProt Q9Y6M4)
Outline: as §1

PKCζ(h) = PKCζ(h) (Homo sapiens, UniProt Q05513)
Outline: as §1

PASK(h) = PASK(h) (Homo sapiens, UniProt Q96RG2)
Outline: as §1

TGFBR1(h) = TGFBR1(h) (Homo sapiens, UniProt P36897)
Outline: as §1

TSSK1(h) = TSSK1(h) (Homo sapiens, UniProt Q9BXA7)
Outline: as §1

NEK7(h), sequence (Q8TDX7 whole entry): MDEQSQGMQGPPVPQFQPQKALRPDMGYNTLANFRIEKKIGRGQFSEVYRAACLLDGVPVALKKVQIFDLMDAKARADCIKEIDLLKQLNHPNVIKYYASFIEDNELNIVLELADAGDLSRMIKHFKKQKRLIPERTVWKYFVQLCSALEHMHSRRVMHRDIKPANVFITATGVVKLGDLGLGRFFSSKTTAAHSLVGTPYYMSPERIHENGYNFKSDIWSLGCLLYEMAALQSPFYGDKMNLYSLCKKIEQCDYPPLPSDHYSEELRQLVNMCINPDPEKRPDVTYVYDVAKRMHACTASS
CK1γ1(h), sequence (Q9HCP0 whole entry): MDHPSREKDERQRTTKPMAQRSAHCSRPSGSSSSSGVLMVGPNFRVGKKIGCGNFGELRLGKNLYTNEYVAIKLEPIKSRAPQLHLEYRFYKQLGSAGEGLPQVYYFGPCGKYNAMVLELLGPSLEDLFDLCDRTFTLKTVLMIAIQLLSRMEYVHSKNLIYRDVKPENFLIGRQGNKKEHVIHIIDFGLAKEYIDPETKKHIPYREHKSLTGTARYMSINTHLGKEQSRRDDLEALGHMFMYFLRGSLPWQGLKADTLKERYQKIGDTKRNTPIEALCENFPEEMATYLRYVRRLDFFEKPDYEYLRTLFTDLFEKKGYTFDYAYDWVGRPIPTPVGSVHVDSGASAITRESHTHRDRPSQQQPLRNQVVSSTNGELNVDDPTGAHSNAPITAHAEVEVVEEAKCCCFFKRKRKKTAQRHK
EphA7(h), sequence (Q15375 28-998): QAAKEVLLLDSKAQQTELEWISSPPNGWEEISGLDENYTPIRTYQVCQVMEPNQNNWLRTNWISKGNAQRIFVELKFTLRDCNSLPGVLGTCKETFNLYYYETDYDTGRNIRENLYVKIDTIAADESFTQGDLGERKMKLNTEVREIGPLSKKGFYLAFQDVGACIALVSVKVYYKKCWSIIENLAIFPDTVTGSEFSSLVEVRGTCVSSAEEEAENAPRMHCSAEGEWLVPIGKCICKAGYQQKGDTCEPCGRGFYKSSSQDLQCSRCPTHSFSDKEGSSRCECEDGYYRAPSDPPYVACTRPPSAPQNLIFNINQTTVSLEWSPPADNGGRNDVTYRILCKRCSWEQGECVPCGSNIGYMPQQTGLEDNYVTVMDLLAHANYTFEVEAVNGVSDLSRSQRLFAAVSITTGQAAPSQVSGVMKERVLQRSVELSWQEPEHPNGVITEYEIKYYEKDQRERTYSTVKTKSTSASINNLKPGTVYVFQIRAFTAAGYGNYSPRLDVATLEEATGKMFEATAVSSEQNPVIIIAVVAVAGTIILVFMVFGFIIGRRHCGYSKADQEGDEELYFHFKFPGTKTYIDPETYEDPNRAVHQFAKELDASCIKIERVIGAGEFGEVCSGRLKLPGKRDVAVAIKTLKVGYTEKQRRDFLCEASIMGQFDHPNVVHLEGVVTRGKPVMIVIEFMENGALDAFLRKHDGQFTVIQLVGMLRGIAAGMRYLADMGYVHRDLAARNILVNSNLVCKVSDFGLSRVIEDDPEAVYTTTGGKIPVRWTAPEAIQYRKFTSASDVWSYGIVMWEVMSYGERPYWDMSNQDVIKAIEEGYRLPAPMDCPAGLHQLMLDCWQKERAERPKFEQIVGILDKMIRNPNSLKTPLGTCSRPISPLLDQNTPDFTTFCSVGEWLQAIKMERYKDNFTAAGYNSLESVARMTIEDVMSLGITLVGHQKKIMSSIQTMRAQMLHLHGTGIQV
eEF-2K(h), sequence (O00418 whole entry): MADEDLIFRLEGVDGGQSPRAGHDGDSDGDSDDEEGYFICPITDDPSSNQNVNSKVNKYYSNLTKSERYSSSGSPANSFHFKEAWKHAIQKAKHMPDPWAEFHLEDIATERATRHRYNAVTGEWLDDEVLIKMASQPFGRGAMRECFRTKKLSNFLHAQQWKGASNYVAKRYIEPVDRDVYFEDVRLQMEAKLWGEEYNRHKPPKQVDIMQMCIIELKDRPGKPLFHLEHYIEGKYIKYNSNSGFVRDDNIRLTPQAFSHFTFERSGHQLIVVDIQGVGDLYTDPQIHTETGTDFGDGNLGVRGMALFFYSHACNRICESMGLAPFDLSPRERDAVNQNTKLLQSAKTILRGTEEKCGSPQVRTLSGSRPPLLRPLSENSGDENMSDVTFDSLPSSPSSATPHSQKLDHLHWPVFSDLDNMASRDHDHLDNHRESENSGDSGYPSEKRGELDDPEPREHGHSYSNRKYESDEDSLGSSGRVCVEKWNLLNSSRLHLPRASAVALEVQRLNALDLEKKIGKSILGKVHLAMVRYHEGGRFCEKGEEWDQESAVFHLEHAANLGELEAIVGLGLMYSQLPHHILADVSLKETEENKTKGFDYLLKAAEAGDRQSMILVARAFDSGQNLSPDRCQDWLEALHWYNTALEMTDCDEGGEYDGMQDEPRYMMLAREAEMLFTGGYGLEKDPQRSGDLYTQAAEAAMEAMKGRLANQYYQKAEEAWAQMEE
DDR2(h), sequence (Q16832 22-855): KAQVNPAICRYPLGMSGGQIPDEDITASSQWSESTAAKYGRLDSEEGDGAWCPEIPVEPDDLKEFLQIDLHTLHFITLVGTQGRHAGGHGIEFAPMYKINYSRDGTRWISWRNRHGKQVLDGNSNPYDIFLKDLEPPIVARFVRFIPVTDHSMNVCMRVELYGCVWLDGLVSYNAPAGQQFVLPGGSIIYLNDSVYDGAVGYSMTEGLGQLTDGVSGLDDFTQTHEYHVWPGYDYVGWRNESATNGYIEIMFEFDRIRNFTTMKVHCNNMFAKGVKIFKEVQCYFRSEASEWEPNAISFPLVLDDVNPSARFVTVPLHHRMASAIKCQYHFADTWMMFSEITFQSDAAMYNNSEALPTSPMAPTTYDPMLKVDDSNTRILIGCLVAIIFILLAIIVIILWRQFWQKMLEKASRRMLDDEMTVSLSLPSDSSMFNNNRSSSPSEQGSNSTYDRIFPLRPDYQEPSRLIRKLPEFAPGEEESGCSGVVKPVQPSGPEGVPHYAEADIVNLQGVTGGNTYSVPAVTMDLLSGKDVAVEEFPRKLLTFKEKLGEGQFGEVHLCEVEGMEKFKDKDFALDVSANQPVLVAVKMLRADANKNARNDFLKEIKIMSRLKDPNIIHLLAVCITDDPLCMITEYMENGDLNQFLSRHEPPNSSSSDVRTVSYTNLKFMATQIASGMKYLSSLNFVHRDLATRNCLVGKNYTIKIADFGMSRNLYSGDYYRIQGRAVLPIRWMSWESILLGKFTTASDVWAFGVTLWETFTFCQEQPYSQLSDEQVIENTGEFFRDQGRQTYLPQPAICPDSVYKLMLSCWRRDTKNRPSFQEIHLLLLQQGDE
PKCζ(h), sequence (Q05513 whole entry): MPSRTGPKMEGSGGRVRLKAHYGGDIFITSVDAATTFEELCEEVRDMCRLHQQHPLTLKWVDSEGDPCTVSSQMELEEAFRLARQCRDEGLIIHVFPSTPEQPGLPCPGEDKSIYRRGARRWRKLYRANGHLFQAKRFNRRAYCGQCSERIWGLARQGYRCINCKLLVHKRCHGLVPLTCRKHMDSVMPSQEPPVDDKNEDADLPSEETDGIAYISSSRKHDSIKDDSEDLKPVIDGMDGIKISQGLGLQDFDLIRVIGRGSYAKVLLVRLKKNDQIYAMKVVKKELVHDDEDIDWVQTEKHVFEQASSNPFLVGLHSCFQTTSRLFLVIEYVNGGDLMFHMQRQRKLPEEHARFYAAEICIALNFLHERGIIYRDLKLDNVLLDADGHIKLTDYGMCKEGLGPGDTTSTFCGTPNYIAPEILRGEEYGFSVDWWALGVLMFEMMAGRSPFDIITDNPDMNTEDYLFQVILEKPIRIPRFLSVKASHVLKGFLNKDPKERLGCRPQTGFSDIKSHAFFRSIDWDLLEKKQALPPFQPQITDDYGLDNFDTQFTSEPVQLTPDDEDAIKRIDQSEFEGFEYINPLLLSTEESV
BrSK1(h), sequence (Q8TDC3 whole entry): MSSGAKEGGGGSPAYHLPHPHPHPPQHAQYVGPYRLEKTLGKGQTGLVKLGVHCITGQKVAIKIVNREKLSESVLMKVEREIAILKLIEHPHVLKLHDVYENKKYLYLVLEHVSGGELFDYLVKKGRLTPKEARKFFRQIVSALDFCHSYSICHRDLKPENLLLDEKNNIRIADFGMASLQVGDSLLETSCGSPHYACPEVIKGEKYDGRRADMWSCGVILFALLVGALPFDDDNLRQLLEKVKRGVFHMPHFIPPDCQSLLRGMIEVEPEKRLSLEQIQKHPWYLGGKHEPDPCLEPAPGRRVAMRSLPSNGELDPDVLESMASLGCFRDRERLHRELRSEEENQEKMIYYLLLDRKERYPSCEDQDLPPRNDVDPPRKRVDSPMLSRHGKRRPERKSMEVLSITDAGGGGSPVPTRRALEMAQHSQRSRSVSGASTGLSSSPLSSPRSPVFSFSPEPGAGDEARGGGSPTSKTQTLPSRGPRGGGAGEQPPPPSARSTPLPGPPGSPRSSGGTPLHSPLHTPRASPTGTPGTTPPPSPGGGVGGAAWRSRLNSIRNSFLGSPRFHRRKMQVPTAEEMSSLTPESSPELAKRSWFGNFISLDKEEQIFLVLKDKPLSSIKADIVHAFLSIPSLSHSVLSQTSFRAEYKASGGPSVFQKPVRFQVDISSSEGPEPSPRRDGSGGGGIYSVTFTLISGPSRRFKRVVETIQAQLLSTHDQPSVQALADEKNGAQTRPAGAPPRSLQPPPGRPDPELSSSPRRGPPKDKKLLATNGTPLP
TSSK1(h), sequence (Q9BXA7 whole entry): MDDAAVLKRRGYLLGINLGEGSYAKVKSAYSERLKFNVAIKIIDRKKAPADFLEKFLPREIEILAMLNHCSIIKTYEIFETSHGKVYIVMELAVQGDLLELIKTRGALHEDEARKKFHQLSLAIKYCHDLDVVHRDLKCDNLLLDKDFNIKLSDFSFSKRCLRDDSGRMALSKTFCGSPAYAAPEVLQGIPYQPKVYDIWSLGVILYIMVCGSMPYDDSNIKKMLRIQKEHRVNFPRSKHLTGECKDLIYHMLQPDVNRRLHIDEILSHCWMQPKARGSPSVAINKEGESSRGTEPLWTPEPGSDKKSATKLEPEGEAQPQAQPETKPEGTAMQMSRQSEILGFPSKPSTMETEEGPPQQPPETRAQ

Nc1n[nH]c2ccc(-c3ccnc4[nH]c(-c5ccccc5)cc34)cc12 [Compound 4]
inhibition at 1 µM (IR(h), activated): 46% | inhibition at 1 µM (Txk(h)): 43% | inhibition at 1 µM (Lck(h) activated): 44% | inhibition at 1 µM (MKK6(h)): 17% | inhibition at 1 µM (Rse(h)): 30% | inhibition at 1 µM (PAK4(h)): 42% | inhibition at 1 µM (BrSK1(h)): 45% | inhibition at 1 µM (LKB1(h)): 15% | inhibition at 1 µM (eEF-2K(h)): 0% | inhibition at 1 µM (Itk(h)): 18% | inhibition at 1 µM (ULK3(h)): 48% | inhibition at 1 µM (EphB3(h)): 8% | inhibition at 1 µM (LOK(h)): 67% | inhibition at 1 µM (TAO3(h)): 36% | inhibition at 1 µM (EphA2(h)): 14% | inhibition at 1 µM (mTOR/FKBP12(h)): 3% | inhibition at 1 µM (FGFR2(h)): 79% | inhibition at 1 µM (EphA7(h)): 26% | inhibition at 1 µM (DDR2(h)): 16% | inhibition at 1 µM (ULK2(h)): 2% | inhibition at 1 µM (Lyn(h)): 77% | inhibition at 1 µM (EphA5(h)): 19% | inhibition at 1 µM (Snk(h)): 1% | inhibition at 1 µM (NEK7(h)): -2% | inhibition at 1 µM (MST3(h)): 6% | inhibition at 1 µM (SGK3(h)): -8% | inhibition at 1 µM (CK2α2(h)): 5% | inhibition at 1 µM (TSSK2(h)): -9% | inhibition at 1 µM (p70S6K(h)): 33% | inhibition at 1 µM (Tie2 (h)): 55% | inhibition at 1 µM (CK1γ1(h)): 20% | inhibition at 1 µM (CLK3(h)): 74% | inhibition at 1 µM (IGF-1R(h), activated): 61% | inhibition at 1 µM (SRPK2(h)): -5% | inhibition at 1 µM (FGFR4(h)): 8% | inhibition at 1 µM (SIK(h)): 56% | inhibition at 1 µM (CK1γ3(h)): 29% | inhibition at 1 µM (PKCζ(h)): -1% | inhibition at 1 µM (PASK(h)): 65% | inhibition at 1 µM (TGFBR1(h)): 28% | inhibition at 1 µM (TSSK1(h)): 34%

Nc1n[nH]c2ccc(-c3ccnc4[nH]c(-c5cccc(OCc6ccccc6)c5)cc34)cc12 [Compound 5r [SU1261]]
inhibition at 1 µM (IR(h), activated): 23% | inhibition at 1 µM (Txk(h)): 27% | inhibition at 1 µM (Lck(h) activated): 23% | inhibition at 1 µM (MKK6(h)): 2% | inhibition at 1 µM (Rse(h)): 10% | inhibition at 1 µM (PAK4(h)): 37% | inhibition at 1 µM (BrSK1(h)): -5% | inhibition at 1 µM (LKB1(h)): 17% | inhibition at 1 µM (eEF-2K(h)): -7% | inhibition at 1 µM (Itk(h)): 20% | inhibition at 1 µM (ULK3(h)): 14% | inhibition at 1 µM (EphB3(h)): -4% | inhibition at 1 µM (LOK(h)): 51% | inhibition at 1 µM (TAO3(h)): 4% | inhibition at 1 µM (EphA2(h)): -9% | inhibition at 1 µM (mTOR/FKBP12(h)): 2% | inhibition at 1 µM (FGFR2(h)): 39% | inhibition at 1 µM (EphA7(h)): -3% | inhibition at 1 µM (DDR2(h)): -17% | inhibition at 1 µM (ULK2(h)): -4% | inhibition at 1 µM (Lyn(h)): 31% | inhibition at 1 µM (EphA5(h)): 8% | inhibition at 1 µM (Snk(h)): -2% | inhibition at 1 µM (NEK7(h)): -2% | inhibition at 1 µM (MST3(h)): -3% | inhibition at 1 µM (SGK3(h)): -27% | inhibition at 1 µM (CK2α2(h)): 4% | inhibition at 1 µM (TSSK2(h)): -9% | inhibition at 1 µM (p70S6K(h)): -15% | inhibition at 1 µM (Tie2 (h)): 18% | inhibition at 1 µM (CK1γ1(h)): 10% | inhibition at 1 µM (CLK3(h)): 23% | inhibition at 1 µM (IGF-1R(h), activated): 32% | inhibition at 1 µM (SRPK2(h)): -7% | inhibition at 1 µM (FGFR4(h)): 6% | inhibition at 1 µM (SIK(h)): 8% | inhibition at 1 µM (CK1γ3(h)): 19% | inhibition at 1 µM (PKCζ(h)): 4% | inhibition at 1 µM (PASK(h)): 16% | inhibition at 1 µM (TGFBR1(h)): 21% | inhibition at 1 µM (TSSK1(h)): 14%
